Results from PubChem BioAssay (NCI).
“And” between values parts separate entries of the source, which are not always exact repeats. Equal values may be shown once.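 1) Cells in 96-well plates. 2) Compound, 48 h, 5 concentrations. 3) Linear interpolation between surrounding doses. 4) Unreached endpoint = highest concentration. Abbreviation: GI50, concentration required for 50% inhibition of growth. The concentration for full growth arrest is given as TGI.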

What was measured:
Experiment in all cases: NCI anticancer screen, dose series, 48 h
DU-145 prostate = test system: DU-145 prostate
SK-OV-3 ovarian = test system: SK-OV-3 ovarian
CAKI-1 renal = test system: CAKI-1 renal
HT29 colon = test system: HT29 colon
EKVX NSCLC = test system: EKVX NSCLC
HCT-116 colon = test system: HCT-116 colon
SF-268 CNS = test system: SF-268 CNS
COLO 205 colon = test system: COLO 205 colon
K-562 leukemia = test system: K-562 leukemia
HL-60(TB) leukemia = test system: HL-60(TB) leukemia

Row | SMILES | TGI (DU-145 prostate) | TGI (SK-OV-3 ovarian) | TGI (CAKI-1 renal) | TGI (HT29 colon) | TGI (EKVX NSCLC) | TGI (HCT-116 colon) | TGI (SF-268 CNS) | TGI (COLO 205 colon) | TGI (K-562 leukemia) | TGI (HL-60(TB) leukemia) | GI50 (DU-145 prostate) | GI50 (SK-OV-3 ovarian) | GI50 (CAKI-1 renal) | GI50 (HT29 colon) | GI50 (EKVX NSCLC) | GI50 (HCT-116 colon) | GI50 (SF-268 CNS) | GI50 (COLO 205 colon) | GI50 (K-562 leukemia) | GI50 (HL-60(TB) leukemia)
1 | O=C1C=C(Nc2nc(C(=O)O)cc(=O)[nH]2)c2ccccc2C1=O | > 100 µM | > 100 µM | > 100 µM | > 100 µM | > 100 µM | > 100 µM | > 100 µM | > 100 µM | > 100 µM | > 100 µM |  |  |  |  |  |  |  |  |  | 
2 | CCCCc1nc2cc(/C=C/C(=O)NO)ccc2n1CCN(CC)CC | 4.64 µM | 0.88 µM | 0.943 µM | 0.762 µM | > 100 µM | 0.571 µM | 7.55 µM | 0.298 µM | > 100 µM | > 100 µM | 0.302 µM | 0.241 µM | 0.237 µM | 0.198 µM | 0.387 µM | 0.115 µM | 0.552 µM | 0.138 µM | 0.282 µM | 0.441 µM
3 | COC(=O)[C@H](Cc1ccccc1)NC(=O)[C@@H](OC)[C@@H]1Cc2cc3cc(OC4CC(OC5CC(O)C(O)C(C)O5)C(O)C(C)O4)c(C)c(O)c3c(O)c2C(=O)[C@H]1OC1CC(OC2CC(OC3CC(C)(O)C(O)C(C)O3)C(O)C(C)O2)C(O)C(C)O1 (some centres not stated) | > 14.3 µM | > 14.3 µM | > 14.3 µM | > 14.3 µM | > 14.3 µM | > 14.3 µM | 2.24 µM | 0.0682 µM | > 14.3 µM | 0.649 µM | 0.0286 µM | 0.0509 µM | 0.0416 µM | 0.0268 µM | 0.0393 µM | 0.00587 µM | 0.0298 µM | 0.0182 µM | 0.0312 µM | 0.0336 µM
4 | CC(C)(C)c1nnc2n(c1=O)N=CC(c1ccc(Br)cc1)S2 (configuration not stated) | > 100 µM | > 100 µM | 62.5 µM | > 100 µM | 66.7 µM | 50.9 µM | > 100 µM | > 100 µM | > 100 µM | > 100 µM | 29.3 µM | 89.9 µM | 24.7 µM | 43.8 µM | 22.7 µM | 23.9 µM | 42.7 µM | 39.2 µM | 26.5 µM | 39 µM
5 | CC(C)(C)n1cc(-c2ccnc(NCCNS(=O)(=O)c3cccc4ccccc34)c2)c(-c2cccc(F)c2)n1 | > 100 µM | > 100 µM | 30.8 µM | 23.9 µM | > 100 µM | 19.2 µM | > 100 µM | 43.3 µM | 82.2 µM | 44.5 µM | 26.7 µM | 26 µM | 16 µM | 5.25 µM | 17.2 µM | 4.62 µM | 40.3 µM | 8.98 µM | 5.9 µM | 17.5 µM
6 | Cc1[nH]nc(C(=O)Nc2n[nH]c3ccccc23)c1[N+](=O)[O-] | > 100 µM | > 100 µM | > 100 µM | > 100 µM | > 100 µM | > 100 µM | > 100 µM | > 100 µM | > 100 µM | > 96.1 µM | > 79.7 µM | > 100 µM | > 100 µM | > 100 µM | > 100 µM | > 100 µM | > 100 µM | 63.4 µM | > 100 µM | > 63 µM
7 | O=[N+]([O-])c1ccc2c(c1)S(=O)c1ccccc1-2 (configuration not stated) | > 100 µM | > 100 µM | > 100 µM | > 100 µM | > 100 µM | > 100 µM | > 100 µM | > 100 µM | > 100 µM | > 100 µM |  |  |  |  |  |  |  |  |  | 
8 | C=C1CO[C@@H]2C[C@@H]1CCC1(C)OC1CC/C(C)=C/CC[C@@]2(C)O (some centres not stated) | 31.2 µM | > 100 µM | 44 µM | > 71 µM | 43.9 µM | 31.2 µM | > 100 µM | > 87.2 µM | 7.02 µM |  | 16.1 µM | > 100 µM | 20 µM | 24.5 µM | 18.7 µM | 15.7 µM | 48.6 µM | 34.4 µM | 0.302 µM | 
9 | CC(C)[C@@H](CS(=O)(=O)C(C)C)N1C(=O)[C@@](C)(CC(=O)O)C[C@H](c2cccc(Cl)c2)[C@H]1c1ccc(Cl)cc1 | > 100 µM | 73.2 µM | 32.8 µM | > 90.1 µM | > 100 µM | 17.2 µM | > 100 µM | 34.4 µM | > 100 µM | 46.8 µM | 21.8 µM | 19.2 µM | 0.378 µM | 26.6 µM | 11.9 µM | 0.454 µM | 20.8 µM | 14.7 µM | 18.3 µM | 17.7 µM
10 | COc1cccc2c1C(=O)c1c(O)c3c(c(O)c1C2=O)C[C@@](O)(/C(C)=N\O)C[C@@H]3OC1CC(N)C(O)C(C)O1 (some centres not stated) | 5.74 µM | 11.7 µM | 22.6 µM | 13.2 µM | 19.5 µM | 7.55 µM | 5.77 µM | 3.56 µM | 7.72 µM | 2.14 µM |  |  |  |  |  |  |  |  |  | 
11 | CC(C)c1ccc(O)c(=O)cc1 |  | > 100 µM | > 70.1 µM | > 100 µM | > 100 µM | 13.4 µM and 37.2 µM | > 62.1 µM | 30.1 µM | > 53.1 µM and 14.6 µM | > 24.5 µM | 9.43 µM |  | 8.54 µM | 2.81 µM |  | 3.92 µM | 7.43 µM | 3.83 µM | 3.63 µM | 2.51 µM
12 | CCOC(=O)c1cnc2c(cnn2CC)c1NN=C(C)C | > 100 µM | > 100 µM | > 100 µM | > 100 µM | > 100 µM | > 100 µM | > 100 µM | > 100 µM | > 100 µM | > 100 µM | 29.5 µM | 55.7 µM | 22.9 µM | 23.3 µM | 20.6 µM | 47.1 µM | 38.9 µM | 58.7 µM | 59.6 µM | 59 µM
13 | CN1c2ccccc2C(C)(C)C12CC(c1ccc(Cl)c(S(=O)(=O)N3CCCC3)c1)=NO2 (configuration not stated) | > 100 µM | > 100 µM |  |  | > 100 µM |  | > 100 µM | > 100 µM |  | > 100 µM | > 100 µM | > 100 µM |  |  | > 100 µM |  | > 100 µM | > 100 µM |  | > 100 µM
14 | OC(C(=Nc1ccccc1)c1ccccc1)c1ccccc1 (configuration not stated) | 21.7 µM | 55.8 µM | 30.3 µM | 25.6 µM | 9.35 µM | 31.8 µM | 17.4 µM | 20.9 µM | > 100 µM | 56.1 µM |  |  |  |  |  |  |  |  |  | 
